In one assay the test system is central eye artery. Briefly: blood circulation in the central eye artery under model ischemia-reperfusion. Format: in vivo. The note with it: rats, intravenous, doses of 3, 5, 10, 20 and 100 mg/kg.
The subject of the next assay is NMDA-receptors. Nature of the assay: blocking/unblocking of NMDA-receptors. The note with it: stated property, no test described.
The test system of assay [1] is ischemia-reperfusion eye model.
The mark [2] stands for this setting: rats, parenteral, within 96 hours of ischemia, doses of 3, 5, 10, 20 and 100 mg/kg.

With `OC(COCCC12CC3CC(CC(C3)C1)C2)CN1CCOCC1` (stereo not shown) [1-adamantylethyloxy-3-morpholino-2-propanol], in the assay on central eye artery, the “blood circulation in the central eye artery” value is “stimulates”. Further, the “blocking/unblocking NMDA-receptors” value with NMDA-receptors is “fast blocking/unblocking”. For the same compound, in assay [1] (setting [2]), the “disturbed indicators of acid-alkali balance, oxidative stress and energy metabolism in the retina” value was “promoted the normalization”; the “number of apoptotic and necrotic cells in eye posterior part” value was “reduces”; the “perivascular edema in the retina and optic nerve” value is “attenuated”; the “retinal manifestations of endothelial dysfunction and nitrosating stress” value is “promoted the reduction”. In addition, the “neuroprotective properties under ischemic-hypoxic injury of retina and optic nerve” value in assay [1] (summary of the studies, composition concentration range 3-100 mg/ml) was “expressed neuroprotective properties”.

The values are drawn from patent US9545409B2 (priority 2012, dated 2017).
